According to PubChem BioAssay AID1963836 (Molecular Pharmacology Branch, DTP, NCI, 2024):

Test system: 857933-349-R-J2-PDC complex spheroid viability
Assay: Anticancer human tumor 857933-349-R-J2-PDC patient-derived colon adenocarcinoma cell line growth inhibition [POLQ]
Conditions: for IC50: curve of first compound; for viability, T/C: stronger effect = lower value
Description: Multicellular complex tumor spheroid response to Polymerase (POL) inhibitors (novobiocin, ART-558, RP6685) in combination with a variety of drugs and investigational agents in selected tumor cell lines
The POL inhibitors (novobiocin, ART-558, and RP6685) were evaluated both individually and in combination with standard of care and investigational anticancer small molecules within a complex spheroid model of solid tumors. . Complex spheroids include a stromal component modeled by human endothelial cells (HUVEC) and fibroblasts modeled by human mesenchymal stem cells (MSCs). The concentration ranges selected for each drug and investigational agent were based upon clinically achievable concentrations if the clinical Cmax of the agent was known.
Compounds. The drugs and investigational agents: novobiocin (NSC847541), ART-558 (NSC835418), RP-6685 (NSC848927), peposertib (NSC802822), ceralasertib (NSC780249), elimusertib (NSC800525), camonsertib (NSC841442), AZD-1390 (NSC803789), olaparib (NSC753686), talazoparib (NSC767125), rucaparib (NSC756644), sotorasib (NSC818433), MRTX-1133 (NSC836407), SN-38 (NSC673596), topotecan (NSC609699), epotoside (NSC141540), doxorubicin (NSC123127), gemcitabine (NSC613327), 5-fluorouracil (NSC19893), paclitaxel (NSC125973), vemurafenib (NSC761431), MSA-2 (NSC828583), SN-011 (NSC837082), adavosertib (NSC754352), prexasertib (NSC758257), carboplatin (NSC241240) and oxaliplatin (NSC266046), were obtained from the National Cancer Institute (NCI) Developmental Therapeutics Program Chemical Repository (21). The FDA-approved anticancer drug set is available from the Developmental Therapeutics Program at https://dtp.cancer.gov/organization/dscb/obtaining/. […] The stock solutions were prepared in dimethyl sulfoxide (DMSO, Sigma-Aldrich, St. Louis, MO, cat. D2650), except for the platinum compounds which were prepared in saline (Quality Biological, Gaithersburg, MD, cat. 114-055-101), at 800-fold the tested concentration and stored at -70 degrees C prior to their use. All drugs and investigational agents were tested over a range starting from a high concentration at or near the clinical Cmax and decreasing in half-log increments. If the clinical Cmax for an agent had not been determined, the highest concentration tested was 10 microM, except for SN-38, which was tested at a high concentration of 1 microM.
Cell Culture. All cells were maintained in an incubator at 37 degrees C and 5% CO2 with 95% humidity. The PDC lines were cultured according to standard operating procedures established by the NCI PDMR (https://pdmr.cancer.gov). Table 3 of the manuscript, lists the cell lines along with the number of the three cell types plated to form the mct-spheroids and media for tumor cell growth. After thawing, all PDC lines, except 997537-175-T-J1-PDC and 415267-285-R-J2-PDC, were cultured in Matrigel-coated flasks prepared with a working solution of 1X Ham's F-12 nutrient mix, without supplementation (Thermo Fisher Scientific, cat. 11765054), 100 U/mL penicillin-streptomycin (Thermo Fisher Scientific, cat. 15140122), and 2.5% Matrigel (Corning Inc., Corning, NY, cat. 354248) for the first three passages. The two PDC lines 997537-175-T-J1-PDC and 415267-285-R-J2-PDC were cultured on uncoated flasks. The 857933-349-R-J2-PDC line was cultured in 6C/Colon 1B media containing advanced DMEM/F-12 (Thermo Fisher Scientific, cat. 12634028), 10 mM HEPES (Thermo Fisher Scientific, cat. 15630080), 1X GlutaMAX supplement (Thermo Fisher Scientific, cat. 35050061), 0.1 mg/mL primocin (InvivoGen, San Diego, CA, cat. ant-pm-2), 10% defined fetal bovine serum, heat inactivated (HyClone Laboratories Inc., Logan, UT, cat. SH30070.03HI), 50% L-WRN conditioned media (ATCC, cat. CRL-3276), 1.25 mM N-Acetyl-L-cysteine (Sigma-Aldrich, cat. A9165), 10 mM nicotinamide (Sigma-Aldrich, cat. N0636), 1X B-27 supplement (Thermo Fisher Scientific, cat. 17504044), 1X N-2 supplement (Thermo Fisher Scientific, cat. […]

[1] = second compound 0.0316 µM, first compound 0.0316 µM
[2] = second compound 0.0316 µM, first compound 0.1 µM
[3] = second compound 0.1 µM, first compound 0.0316 µM
[4] = second compound 0.1 µM, first compound 0.1 µM
[5] = second compound 0.316 µM, first compound 0.0316 µM
[6] = second compound 0.316 µM, first compound 0.1 µM
[7] = second compound 1 µM, first compound 0.0316 µM
[8] = second compound 1 µM, first compound 0.1 µM
[9] = second compound 3.16 µM, first compound 0.0316 µM
[10] = second compound 3.16 µM, first compound 0.1 µM
[11] = second compound 10 µM, first compound 0.0316 µM
[12] = second compound 10 µM, first compound 0.1 µM
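Further: spheroids exposed to compounds for seven days before readout.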

COc1cc(C2c3cc4c(cc3C(OC3OC5COC(C)OC5C(O)C3O)C3COC(=O)C23)OCO4)cc(OC)c1O (centres undefined) + Nc1ccc(C#CCN(C(=O)Cc2ncc(C(F)(F)F)cc2C(F)(F)F)c2ccc(F)cc2)nn1
IC50 (second compound 0.0316 µM): 1290 nM
IC50 (second compound 0.1 µM): 747 nM
IC50 (second compound 0.316 µM): 567 nM
IC50 (second compound 1 µM): 532 nM
IC50 (second compound 3.16 µM): 512 nM
IC50 (second compound 10 µM): 599 nM
viability, T/C [1]: 97.1%
viability, T/C [2]: 64.8%
viability, T/C (second compound 0.0316 µM, first compound 0.316 µM): 64.5%
viability, T/C (second compound 0.0316 µM, first compound 1 µM): 64%
viability, T/C (second compound 0.0316 µM, first compound 3.16 µM): 38%
viability, T/C (second compound 0.0316 µM, first compound 10 µM): 25.9%
viability, T/C [3]: 92.5%
viability, T/C [4]: 72.5%
viability, T/C (second compound 0.1 µM, first compound 0.316 µM): 53.6%
viability, T/C (second compound 0.1 µM, first compound 1 µM): 52.3%
viability, T/C (second compound 0.1 µM, first compound 3.16 µM): 36.8%
viability, T/C (second compound 0.1 µM, first compound 10 µM): 22.1%
viability, T/C [5]: 94.2%
viability, T/C [6]: 68.4%
viability, T/C (second compound 0.316 µM, first compound 0.316 µM): 53.5%
viability, T/C (second compound 0.316 µM, first compound 1 µM): 50.6%
viability, T/C (second compound 0.316 µM, first compound 3.16 µM): 35.9%
viability, T/C (second compound 0.316 µM, first compound 10 µM): 25.3%
viability, T/C [7]: 101%
viability, T/C [8]: 68%
viability, T/C (second compound 1 µM, first compound 0.316 µM): 54.3%
viability, T/C (second compound 1 µM, first compound 1 µM): 51.9%
viability, T/C (second compound 1 µM, first compound 3.16 µM): 33.3%
viability, T/C (second compound 1 µM, first compound 10 µM): 31.5%
viability, T/C [9]: 85.3%
viability, T/C [10]: 74%
viability, T/C (second compound 3.16 µM, first compound 0.316 µM): 53%
viability, T/C (second compound 3.16 µM, first compound 1 µM): 44.6%
viability, T/C (second compound 3.16 µM, first compound 3.16 µM): 31%
viability, T/C (second compound 3.16 µM, first compound 10 µM): 27.6%
viability, T/C [11]: 88%
viability, T/C [12]: 71.5%
viability, T/C (second compound 10 µM, first compound 0.316 µM): 60%
viability, T/C (second compound 10 µM, first compound 1 µM): 43.1%
viability, T/C (second compound 10 µM, first compound 3.16 µM): 34.1%
viability, T/C (second compound 10 µM, first compound 10 µM): 32.2%

CC[C@@]1(O)C(=O)OCc2c1cc1n(c2=O)Cc2cc3c(CN(C)C)c(O)ccc3nc2-1 + COC1C(OC(N)=O)C(O)C(Oc2ccc3c(O)c(NC(=O)c4ccc(O)c(CC=C(C)C)c4)c(=O)oc3c2C)OC1(C)C
IC50 (second compound 0.0316 µM): > 100 nM
IC50 (second compound 0.1 µM): 80.7 nM
IC50 (second compound 0.316 µM): > 100 nM
IC50 (second compound 1 µM): > 100 nM
IC50 (second compound 3.16 µM): > 100 nM
IC50 (second compound 10 µM): > 100 nM
viability, T/C (second compound 0.0316 µM, first compound 0.000316 µM): 117%
viability, T/C (second compound 0.0316 µM, first compound 0.001 µM): 107%
viability, T/C (second compound 0.0316 µM, first compound 0.00316 µM): 97.6%
viability, T/C (second compound 0.0316 µM, first compound 0.01 µM): 84.8%
viability, T/C [1]: 83%
viability, T/C [2]: 50.7%
viability, T/C (second compound 0.1 µM, first compound 0.000316 µM): 105%
viability, T/C (second compound 0.1 µM, first compound 0.001 µM): 93.3%
viability, T/C (second compound 0.1 µM, first compound 0.00316 µM): 88.5%
viability, T/C (second compound 0.1 µM, first compound 0.01 µM): 80%
viability, T/C [3]: 71%
viability, T/C [4]: 44.2%
viability, T/C (second compound 0.316 µM, first compound 0.000316 µM): 120%
viability, T/C (second compound 0.316 µM, first compound 0.001 µM): 86%
viability, T/C (second compound 0.316 µM, first compound 0.00316 µM): 94.4%
viability, T/C (second compound 0.316 µM, first compound 0.01 µM): 76.1%
viability, T/C [5]: 88.5%
viability, T/C [6]: 50.4%
viability, T/C (second compound 1 µM, first compound 0.000316 µM): 138%
viability, T/C (second compound 1 µM, first compound 0.001 µM): 83.5%
viability, T/C (second compound 1 µM, first compound 0.00316 µM): 86%
viability, T/C (second compound 1 µM, first compound 0.01 µM): 72%
viability, T/C [7]: 87.1%
viability, T/C [8]: 49.7%
viability, T/C (second compound 3.16 µM, first compound 0.000316 µM): 128%
viability, T/C (second compound 3.16 µM, first compound 0.001 µM): 102%
viability, T/C (second compound 3.16 µM, first compound 0.00316 µM): 79.4%
viability, T/C (second compound 3.16 µM, first compound 0.01 µM): 90.7%
viability, T/C [9]: 65.9%
viability, T/C [10]: 44.3%
viability, T/C (second compound 10 µM, first compound 0.000316 µM): 136%
viability, T/C (second compound 10 µM, first compound 0.001 µM): 123%
viability, T/C (second compound 10 µM, first compound 0.00316 µM): 69.3%
viability, T/C (second compound 10 µM, first compound 0.01 µM): 96.3%
viability, T/C [11]: 81.6%
viability, T/C [12]: 45.4%
